Tests used:
[1] = system: thymidine dimers in DNA of H358 cells; test: Nucleotide excision repair assay (thymidine dimer slot blot) after UVC; type: cell-based; conditions: 50 μM 1a, 24 hours after 40 J/m^2 UVC (untreated: 50%)
Procedure: Also shown are controls for no treatment (“c” minus 1a) or treatment with 1a only (“c” plus 1a). Each lane represents 60 μg protein. […] Each lane represents 60 μg protein.
For NER, a slot blot immunoassay was used to detect the loss of thymidine dimers from the DNA of UVC treated cells as previously described. An antibody specific for cyclobutane pyrimidine dimers, the major photoproduct produced by UVC treatment, was purchased from Kamiya Biomedical Co (Seattle, Wash.; anti-thymidine dimer, clone KTM53) and used at 1:40 dilution.

[2] = system: H358 lung cancer cells; type: cell-based; conditions: 3 days
Procedure: Control cells were left untreated. […] Control cells were left untreated.
Cells were given fresh inhibitor on the first, second, and third days of treatment and viability was measured on the 4th day (i.e. 3 days post start of treatment). […]
(A) Structure of Spd-3a. (B) Western analysis of histone H3K9-acetylation and total histone H3, measured in control, untreated H358 lung cancer cells “C” or in H358 cells incubated 12 hours in the presence of 50 μM Spd-2a or Spd-3a. Each lane represents 60 μg cellular protein. (C) [3H]-thymidine incorporation (counts per minute) into DNA of H358 cells during a 6 hour pulse beginning at 42 hours post-start of treatment. Treatments were as follows (bars 1-6 left to right): (1) control: no treatment; (2) CPT alone: 5 nM 18 hours; (3) 3a alone: 50 μM; (4-6) 3a+CPT: CPT (5 nm, 18 hours)+3a at indicated dose. After 18 hours, CPT was removed and medium was replaced with fresh medium containing Spd-3a at the indicated dose. Each bar represents the average of triplicates. (D) 3-day 96-well viability assay of H358 cells grown in the presence of increasing amounts of Spd-2a or Spd-3a, with or without CPT (5 nM 18 hours). […] Each data point represents the average of three wells.
Date of exp: Jul. […] Date of exp: Sep.
Cells were plated in 96-well plates at 2000 cells per well and treated with the indicated doses of spd-3a. Cell viability was measured by the MTS assay 3 days later.
DLD-1 cells or H358 cells were plated in 96-well plates at 2000 cells per well and treated with the indicated doses of (A) spm-3 or (B) spm-2. (C) Cell viability was measured by the MTS assay 3 days later. Similar experiment using GT41 fibroblasts with spm2 or spm 3. Each assay point represents an average of duplicates. […]

[3] = biological target: T1, p300 catalytic domain (Homo sapiens, UniProt Q09472); test: 96-well fluorescent HAT assay kit (Active Motif), H3 peptide (5-23); type: biochemical
T1 construct: the catalytic domain of p300(965-1810); purchased Active Motif, Carlsbad, Calif
T1 sequence (Q09472 965-1810): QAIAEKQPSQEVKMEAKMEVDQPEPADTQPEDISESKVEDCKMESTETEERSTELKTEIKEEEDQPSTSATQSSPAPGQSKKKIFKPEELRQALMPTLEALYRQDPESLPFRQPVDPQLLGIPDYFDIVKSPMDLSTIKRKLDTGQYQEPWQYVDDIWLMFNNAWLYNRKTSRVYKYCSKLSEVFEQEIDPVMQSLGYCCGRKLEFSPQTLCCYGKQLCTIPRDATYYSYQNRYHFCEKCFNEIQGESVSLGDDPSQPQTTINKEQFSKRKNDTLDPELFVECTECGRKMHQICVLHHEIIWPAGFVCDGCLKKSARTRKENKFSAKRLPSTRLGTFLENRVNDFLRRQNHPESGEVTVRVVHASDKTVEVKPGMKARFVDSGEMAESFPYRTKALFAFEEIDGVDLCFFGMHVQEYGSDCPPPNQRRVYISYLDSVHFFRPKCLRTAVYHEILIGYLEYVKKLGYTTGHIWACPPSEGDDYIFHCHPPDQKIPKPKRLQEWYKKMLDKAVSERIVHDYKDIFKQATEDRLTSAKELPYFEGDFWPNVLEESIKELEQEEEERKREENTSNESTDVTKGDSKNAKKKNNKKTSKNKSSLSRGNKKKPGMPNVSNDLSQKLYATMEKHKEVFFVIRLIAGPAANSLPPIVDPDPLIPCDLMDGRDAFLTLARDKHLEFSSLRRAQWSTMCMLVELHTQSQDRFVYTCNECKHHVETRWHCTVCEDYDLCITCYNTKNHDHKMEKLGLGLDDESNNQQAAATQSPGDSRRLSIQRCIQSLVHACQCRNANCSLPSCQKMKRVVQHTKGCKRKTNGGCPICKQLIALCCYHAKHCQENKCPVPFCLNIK
Procedure: (A) Structures of compound 1a (spermidine CoA), and the acetylated side chain of a lysine residue of a polypeptide chain. (B) Inhibition of p300 acetylating activity as a function of 1a concentration. The catalytic domain of recombinant p300 (1284-1660) was assayed under steady state conditions using an N-terminal acetylated histone H4 peptide substrate, Ac-H4(1-19)-NH2. Closed circles represent experimental data points; plain line represents theoretical profile based on data reduction software (Prism) using a one site inhibition model. (C) In vitro assay of p300 activity using a 96-well assay kit (ActivMotif) and an H3 peptide substrate (5-23), according to manufacturer's instructions. Bars represent average of duplicates. […]
Reactions were set up in duplicate following the protocol supplied by the kit. […] Activity is measured in fluorescence units. […]
Assays were performed using the fluorescent HAT assay kit (Active Motif, Carlsbad, Calif.), an H3 peptide as substrate (residues 5-23), the p300 catalytic domain as enzyme, and 50 μM inhibitor in duplicate, according to the manufacturer's instructions. […] The reaction product, CoASH, was detected spectrophotometrically by reaction with 5,5′-dithiobis-2-nitrobenzoic acid (DTNB). Assays were carried out at 30° C. for 30 minutes, conditions which had previously been determined in kinetic assays to sufficient to achieve steady state.

SMILES	decrease of thymidine dimers [1]	suppression of 3 day cell viability ([2]; human)	inhibition at 50 µM ([3]; 50 μM inhibitor, Active Motif 96-well assay, FIG. 9, read-out: inhibition of incorporation of acetyl groups into the H4 peptide substrate relative to untreated wells)	suppression of cancer cell growth and viability ([2]; spm single agent)	inhibition of p300 HAT activity ([3]; FIG. 24, p300(965-1810), H3 peptide)
CC(C)(COP(=O)(O)OP(=O)(O)OC[C@H]1O[C@@H](n2cnc3c(N)ncnc32)[C@H](O)[C@@H]1OP(=O)(O)O)[C@@H](O)C(=O)NCCC(=O)NCCSCC(=O)NCCCNCCCCN [1a, spermidine[N1]-CoA]	40%	60-70%	88%		
CC(=O)NCCSCC(=O)NCCCNCCCCNCCCN [spm-3]				effective as single agents	HAT inhibitors
